# Data published in US20110053773A1, “METHODS OF IMPROVING NUTRITIONAL VALUE OF PLANTS” (UNIVERSITY OF TENNESSEE RESEARCH FOUNDATION, priority 2009, published 2011).
# What was measured:
# basil 'Genovese' [1] = test: Content analysis of basil: protein, minerals (Example 4, Tables 10-11); format: in vivo; conditions: 28 DA-A
# How it was run: (§1)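 Greenhouse postemergence applications of chlorpyrifos, chlorothalonil, mepiquat-chloride, paclobutrazol, napthalic anhydride or isoxadifen-ethyl. Visual injury (phytotoxicity, chlorosis, stunting) scored 0–100%, 0 = no response, 100 = plant death. Harvest about 4 weeks after treatment; replicates pooled for protein, mineral, amino acid, fiber and fatty acid analysis.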
# kale 'Red Russian' = test: Visual injury of kale after insecticide, fungicide, PGRs, safeners (Example 4)
# How it was run: as §1
# kale ‘Red Russian’ = test: Yield, fresh weight of kale after insecticide, fungicide and PGRs (Example 4, Table 12); format: in vivo; conditions: 28 DA-A, Untreated Check 106.9
# How it was run: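 Postemergence greenhouse applications of chlorpyrifos, chlorothalonil, mepiquat-chloride, paclobutrazol, napthalic anhydride or isoxadifen-ethyl. Injury rated visually for phytotoxicity, chlorosis and stunting on a 0–100% scale (0 = no response, 100 = plant death). Plants harvested ~4 weeks after treatment, pooled over replicates for nutrient content analysis.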
# basil 'Genovese' [2] = test: Visual injury of basil after insecticide, fungicide, PGRs, safeners (Example 4)
# How it was run: as §1
# [3] = rates g ai/ha: chlroprifos 3370, chlorothalonil 7900, paclobutrazol 9.7, mepiquat-chloride 37, Isoxadifen 16, Napthalic anhydride 527, + NIS 0.25 % v/v
# [4] = rates g ai/ha: chlropyrifos 1120, chlorothalonil 2630, paclobutrazol 3.23, mepiquat-chloride 12.3, Isoxadifen 8, Napthalic anhydride 264, + NIS 0.25 % v/v
# [5] = 7 DA-A, rates g ai/ha: chlropyrifos 1120, chlorothalonil 2630, paclobutrazol 3.23, mepiquat-chloride 12.3, + NIS 0.25 % v/v
# [6] = 7 DA-A, rates g ai/ha: chlropyrifos 3370, chlorothalonil 7900, paclobutrazol 9.7, mepiquat-chloride 37, + NIS 0.25 % v/v
# [7] = 14 DA-A, rates g ai/ha: chlropyrifos 1120, chlorothalonil 2630, paclobutrazol 3.23, mepiquat-chloride 12.3, + NIS 0.25 % v/v
# [8] = 14 DA-A, rates g ai/ha: chlropyrifos 3370, chlorothalonil 7900, paclobutrazol 9.7, mepiquat-chloride 37, + NIS 0.25 % v/v
# [9] = 28 DA-A, rates g ai/ha: chlropyrifos 1120, chlorothalonil 2630, paclobutrazol 3.23, mepiquat-chloride 12.3, + NIS 0.25 % v/v
# [10] = 28 DA-A, rates g ai/ha: chlropyrifos 3370, chlorothalonil 7900, paclobutrazol 9.7, mepiquat-chloride 37, + NIS 0.25 % v/v
# [11] = 7 DA-A, rates g ai/ha: chlropyrifos 1120, chlorothalonil 2630, paclobutrazol 3.23, mepiquat-chloride 12.3, Isoxadifen 8, Napthalic anhydride 264, + NIS 0.25 % v/v
# [12] = 7 DA-A, rates g ai/ha: chlropyrifos 3370, chlorothalonil 7900, paclobutrazol 9.7, mepiquat-chloride 37, Isoxadifen 16, Napthalic anhydride 527, + NIS 0.25 % v/v
# [13] = 14 DA-A, rates g ai/ha: chlropyrifos 1120, chlorothalonil 2630, paclobutrazol 3.23, mepiquat-chloride 12.3, Isoxadifen 8, Napthalic anhydride 264, + NIS 0.25 % v/v
# [14] = 14 DA-A, rates g ai/ha: chlropyrifos 3370, chlorothalonil 7900, paclobutrazol 9.7, mepiquat-chloride 37, Isoxadifen 16, Napthalic anhydride 527, + NIS 0.25 % v/v
compound,measurement,setting,value
C[N+]1(C)CCCCC1 [mepiquat-chloride],"ADF, Percent Increase Over the Untreated Check (on a % dry matter basis)",basil 'Genovese' [1]; [3],−9 % check
same,"Calcium, Percent Increase Over the Untreated Check (on a % dry matter basis)",basil 'Genovese' [1]; [3],2 % check
same,"Copper, Percent Increase Over the Untreated Check (on a % dry matter basis)",basil 'Genovese' [1]; [3],−8 % check
same,"Iron, Percent Increase Over the Untreated Check (on a % dry matter basis)",basil 'Genovese' [1]; [3],6 % check
same,"Magnesium, Percent Increase Over the Untreated Check (on a % dry matter basis)",basil 'Genovese' [1]; [3],16 % check
same,"Manganese, Percent Increase Over the Untreated Check (on a % dry matter basis)",basil 'Genovese' [1]; [3],61 % check
same,"NDF, Percent Increase Over the Untreated Check (on a % dry matter basis)",basil 'Genovese' [1]; [3],−11 % check
same,"Phosphorous, Percent Increase Over the Untreated Check (on a % dry matter basis)",basil 'Genovese' [1]; [3],26 % check
same,"Potassium, Percent Increase Over the Untreated Check (on a % dry matter basis)",basil 'Genovese' [1]; [3],−3 % check
same,"Protein, Percent Increase Over the Untreated Check (on a % dry matter basis)",basil 'Genovese' [1]; [3],7 % check
same,"Sodium, Percent Increase Over the Untreated Check (on a % dry matter basis)",basil 'Genovese' [1]; [3],8 % check
same,"Soluble protein, Percent Increase Over the Untreated Check (on a % dry matter basis)",basil 'Genovese' [1]; [3],27 % check
same,"Zinc, Percent Increase Over the Untreated Check (on a % dry matter basis)",basil 'Genovese' [1]; [3],53 % check
same,"ADF, Percent Increase Over the Untreated Check (on a % dry matter basis)",basil 'Genovese' [1]; [4],7 % check
same,"Calcium, Percent Increase Over the Untreated Check (on a % dry matter basis)",basil 'Genovese' [1]; [4],2 % check
same,"Copper, Percent Increase Over the Untreated Check (on a % dry matter basis)",basil 'Genovese' [1]; [4],0 % check
same,"Iron, Percent Increase Over the Untreated Check (on a % dry matter basis)",basil 'Genovese' [1]; [4],14 % check
same,"Magnesium, Percent Increase Over the Untreated Check (on a % dry matter basis)",basil 'Genovese' [1]; [4],0 % check
same,"Manganese, Percent Increase Over the Untreated Check (on a % dry matter basis)",basil 'Genovese' [1]; [4],61 % check
same,"NDF, Percent Increase Over the Untreated Check (on a % dry matter basis)",basil 'Genovese' [1]; [4],−8 % check
same,"Phosphorous, Percent Increase Over the Untreated Check (on a % dry matter basis)",basil 'Genovese' [1]; [4],13 % check
same,"Potassium, Percent Increase Over the Untreated Check (on a % dry matter basis)",basil 'Genovese' [1]; [4],−4 % check
same,"Protein, Percent Increase Over the Untreated Check (on a % dry matter basis)",basil 'Genovese' [1]; [4],13 % check
same,"Sodium, Percent Increase Over the Untreated Check (on a % dry matter basis)",basil 'Genovese' [1]; [4],−8 % check
same,"Soluble protein, Percent Increase Over the Untreated Check (on a % dry matter basis)",basil 'Genovese' [1]; [4],89 % check
same,"Zinc, Percent Increase Over the Untreated Check (on a % dry matter basis)",basil 'Genovese' [1]; [4],34 % check
same,Phytotoxicity Chlorosis,kale 'Red Russian'; [5],0%
same,Phytotoxicity General,kale 'Red Russian'; [5],9%
same,Phytotoxicity Stunting,kale 'Red Russian'; [5],4%
same,Phytotoxicity Chlorosis,kale 'Red Russian'; [6],0%
same,Phytotoxicity General,kale 'Red Russian'; [6],10%
same,Phytotoxicity Stunting,kale 'Red Russian'; [6],1%
same,Phytotoxicity Chlorosis,kale 'Red Russian'; [7],15%
same,Phytotoxicity General,kale 'Red Russian'; [7],1%
same,Phytotoxicity Stunting,kale 'Red Russian'; [7],16%
same,Phytotoxicity Chlorosis,kale 'Red Russian'; [8],4%
same,Phytotoxicity General,kale 'Red Russian'; [8],0%
same,Phytotoxicity Stunting,kale 'Red Russian'; [8],3%
same,Phytotoxicity Chlorosis,kale 'Red Russian'; [9],6%
same,Phytotoxicity General,kale 'Red Russian'; [9],1%
same,Phytotoxicity Stunting,kale 'Red Russian'; [9],9%
same,Phytotoxicity Chlorosis,kale 'Red Russian'; [10],3%
same,Phytotoxicity General,kale 'Red Russian'; [10],3%
same,Phytotoxicity Stunting,kale 'Red Russian'; [10],10%
same,Yield Fresh weight,"kale ‘Red Russian’; rates g ai/ha: chlropyrifos 1120, chlorothalonil 2630, paclobutrazol 3.23, mepiquat-chloride 12.3, + NIS 0.25 % v/v",101.8 grams
same,Yield Fresh weight,"kale ‘Red Russian’; rates g ai/ha: chlropyrifos 3370, chlorothalonil 7900, paclobutrazol 9.7, mepiquat-chloride 37, + NIS 0.25 % v/v",101.2 grams
same,Phytotoxicity Chlorosis,basil 'Genovese' [2]; [11],3%
same,Phytotoxicity General,basil 'Genovese' [2]; [11],2%
same,Phytotoxicity Stunting,basil 'Genovese' [2]; [11],3%
same,Phytotoxicity Chlorosis,basil 'Genovese' [2]; [12],5%
same,Phytotoxicity General,basil 'Genovese' [2]; [12],2%
same,Phytotoxicity Stunting,basil 'Genovese' [2]; [12],5%
same,Phytotoxicity Chlorosis,basil 'Genovese' [2]; [13],7%
same,Phytotoxicity General,basil 'Genovese' [2]; [13],5%
same,Phytotoxicity Stunting,basil 'Genovese' [2]; [13],3%
same,Phytotoxicity Chlorosis,basil 'Genovese' [2]; [14],2%
same,Phytotoxicity General,basil 'Genovese' [2]; [14],5%
same,Phytotoxicity Stunting,basil 'Genovese' [2]; [14],0%
